Calls of active or inactive are those of the source.

The source of these data is ChEMBL document CHEMBL1201862, “PubChem BioAssay data set” (2004).

One experiment relates to H4. In words: Luminescence Cell-Based Dose Response HTS to Identify Activators of 5'UTR Stem-Loop Driven Prion Protein mRNA Translation in H4 Neuroglioblastoma Cells. [Related pubchem assays: 1829 (Project Summary), 1814 (Primary HTS)]. In kind it is functional. The conditions noted are these: Homo sapiens.
The nature of experiment [1]: Luminescence Cell-Based Dose Response HTS to Identify Activators of Luciferase Translation or Activity in H4 […] Cells. [Related pubchem assays: 1829 (Project Summary), 1814 (Primary HTS)]. Format: functional.
Experiment [2] is described as follows: Luminescence Cell-Based Dose Confirmation HTS to Identify Activators of 5'UTR Stem-Loop Driven Alpha-Synuclein mRNA Translation in H4 Neuroglioblastoma Cells. [Related pubchem assays: 1829 (Project Summary), 1814 (Primary HTS)]. In kind it is functional.
Experiment [3] is described as follows: viability of uninfected HEp-2 cells – cell-based, HTS, cytotoxicity control for RSV inhibitor project, dose response (AID 2410). In kind it is functional. The conditions noted are these: human respiratory syncytial virus.
Another experiment deals with Cytochrome P450 2D6 (Homo sapiens, UniProt P10635).
The target in experiment [4] is T1, Corticotropin-releasing factor receptor 2/Corticotropin-releasing factor-binding protein (Homo sapiens, UniProt P24387+Q13324).
T1 sequence (Q13324 whole entry): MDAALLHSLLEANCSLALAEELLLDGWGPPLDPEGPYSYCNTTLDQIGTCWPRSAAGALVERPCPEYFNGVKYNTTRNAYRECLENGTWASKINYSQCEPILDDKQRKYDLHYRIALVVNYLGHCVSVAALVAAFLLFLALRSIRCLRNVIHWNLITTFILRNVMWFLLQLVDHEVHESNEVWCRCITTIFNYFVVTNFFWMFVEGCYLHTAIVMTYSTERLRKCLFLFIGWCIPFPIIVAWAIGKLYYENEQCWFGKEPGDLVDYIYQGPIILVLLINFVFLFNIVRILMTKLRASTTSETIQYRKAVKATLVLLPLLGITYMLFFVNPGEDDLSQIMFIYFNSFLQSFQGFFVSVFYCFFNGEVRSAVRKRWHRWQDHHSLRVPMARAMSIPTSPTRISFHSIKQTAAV
T1 sequence (P24387 whole entry): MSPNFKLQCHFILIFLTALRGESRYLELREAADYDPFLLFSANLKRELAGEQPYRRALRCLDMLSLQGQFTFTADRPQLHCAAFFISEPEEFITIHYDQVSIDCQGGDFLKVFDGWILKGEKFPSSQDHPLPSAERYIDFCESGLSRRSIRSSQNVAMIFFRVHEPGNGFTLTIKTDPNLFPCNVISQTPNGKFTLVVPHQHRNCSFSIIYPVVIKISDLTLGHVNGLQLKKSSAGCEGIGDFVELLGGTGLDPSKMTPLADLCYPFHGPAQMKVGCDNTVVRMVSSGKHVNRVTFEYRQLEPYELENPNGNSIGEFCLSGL
Briefly: Dose Response confirmation of uHTS hits for small molecule antagonists of the CRF-binding protein and CRF-R2 receptor complex. In kind it is functional. As to conditions: read-out: IC50_Mean.

Experiment [5] deals with T1, Corticotropin-releasing factor receptor 2/Corticotropin-releasing factor-binding protein. Briefly: activators of CRF receptor 2 with binding protein – uHTS hits, confirmation (AID 602473). In kind it is functional. As to conditions: read-out: EC50_Mean.
Experiment [6] can be described thus: Luminescence Cell-Based Dose Retest to Confirm Inhibitors of Cancer Stem Cells. [Related pubchem assays (depositor defined):AID2717, AID2721]. In kind it is functional. The conditions noted are these: Homo sapiens.
The next experiment addresses T2, Cytochrome P450 1A2 (Homo sapiens, UniProt P05177).
T2 sequence (P05177 whole entry): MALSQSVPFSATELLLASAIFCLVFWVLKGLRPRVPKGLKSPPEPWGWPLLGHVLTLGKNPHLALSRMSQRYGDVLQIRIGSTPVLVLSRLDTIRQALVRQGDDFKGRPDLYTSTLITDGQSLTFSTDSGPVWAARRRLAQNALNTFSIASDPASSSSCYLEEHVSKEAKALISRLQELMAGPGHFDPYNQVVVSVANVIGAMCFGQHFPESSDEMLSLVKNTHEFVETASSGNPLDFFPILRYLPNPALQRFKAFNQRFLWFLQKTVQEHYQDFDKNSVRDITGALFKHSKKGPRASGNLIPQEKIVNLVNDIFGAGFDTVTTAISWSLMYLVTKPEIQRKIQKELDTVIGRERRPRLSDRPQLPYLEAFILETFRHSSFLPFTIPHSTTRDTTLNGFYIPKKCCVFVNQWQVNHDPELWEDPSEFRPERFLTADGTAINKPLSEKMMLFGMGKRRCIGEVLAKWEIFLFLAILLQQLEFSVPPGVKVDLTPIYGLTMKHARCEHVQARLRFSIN

Another experiment has as its target Cytochrome P450 2C19 (Homo sapiens, UniProt P33261). In words: Cytochrome panel assay with activity outcomes. Panel member name: p450-cyp2c19 Compounds with AC50 equal or less than 10 uM are considered active. Format: functional. The conditions noted are these: read-out: AC50.
Another experiment concerns the target Cytochrome P450 2C9 (Homo sapiens, UniProt P11712).
The target in another experiment is Cytochrome P450 3A4 (Homo sapiens, UniProt P08684).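 Also: CYP3A4 tested as one member of a cytochrome P450 panel screen.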
A short description of experiment [7]: NIH3T3 cell viability loss – ATP luminescence, mouse fibroblasts, counter-screen, dose response (AID 2010).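 Also: cells exposed to compound for about 90 hours before reading.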 Format: functional, cell-based.
The nature of experiment [8]: Trypanosoma cruzi growth suppression in host cells – NIH3T3 host cells, beta-gal luminescence, confirmation (AID 2044).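 Also: intracellular parasites grown in NIH/3T3 mouse fibroblasts as host cells; luminescent beta-galactosidase reporter signal from transgenic T. cruzi replicating inside host cells; inhibitors lower the luminescence signal.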 In kind it is functional, cell-based.

Cytochrome P450 2C9, sequence (P11712 whole entry): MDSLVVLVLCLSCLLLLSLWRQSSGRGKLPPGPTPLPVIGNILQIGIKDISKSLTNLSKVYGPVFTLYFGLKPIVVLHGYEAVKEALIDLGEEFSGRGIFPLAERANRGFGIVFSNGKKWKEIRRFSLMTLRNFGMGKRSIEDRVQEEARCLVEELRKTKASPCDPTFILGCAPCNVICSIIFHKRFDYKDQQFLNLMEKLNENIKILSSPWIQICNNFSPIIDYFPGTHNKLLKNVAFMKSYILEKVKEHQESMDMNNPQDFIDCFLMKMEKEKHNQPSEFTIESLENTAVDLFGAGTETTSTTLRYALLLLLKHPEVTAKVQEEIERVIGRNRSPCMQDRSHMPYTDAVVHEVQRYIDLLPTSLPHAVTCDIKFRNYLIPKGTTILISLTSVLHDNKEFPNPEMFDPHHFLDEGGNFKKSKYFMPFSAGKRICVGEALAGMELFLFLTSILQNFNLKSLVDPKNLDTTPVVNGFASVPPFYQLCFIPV
Cytochrome P450 2C19, sequence (P33261 whole entry): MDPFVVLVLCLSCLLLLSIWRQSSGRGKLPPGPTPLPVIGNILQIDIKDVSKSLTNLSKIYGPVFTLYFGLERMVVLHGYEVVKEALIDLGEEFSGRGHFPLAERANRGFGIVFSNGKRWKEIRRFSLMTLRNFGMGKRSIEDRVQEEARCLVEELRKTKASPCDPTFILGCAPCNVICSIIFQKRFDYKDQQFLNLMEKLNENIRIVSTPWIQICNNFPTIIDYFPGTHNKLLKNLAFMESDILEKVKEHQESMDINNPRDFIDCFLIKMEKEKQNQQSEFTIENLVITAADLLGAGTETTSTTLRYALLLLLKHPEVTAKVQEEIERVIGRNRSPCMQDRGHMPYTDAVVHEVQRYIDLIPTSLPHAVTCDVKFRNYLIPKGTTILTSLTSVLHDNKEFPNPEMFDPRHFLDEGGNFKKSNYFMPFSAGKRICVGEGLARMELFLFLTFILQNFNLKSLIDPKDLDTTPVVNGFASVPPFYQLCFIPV
Cytochrome P450 3A4, sequence (P08684 whole entry): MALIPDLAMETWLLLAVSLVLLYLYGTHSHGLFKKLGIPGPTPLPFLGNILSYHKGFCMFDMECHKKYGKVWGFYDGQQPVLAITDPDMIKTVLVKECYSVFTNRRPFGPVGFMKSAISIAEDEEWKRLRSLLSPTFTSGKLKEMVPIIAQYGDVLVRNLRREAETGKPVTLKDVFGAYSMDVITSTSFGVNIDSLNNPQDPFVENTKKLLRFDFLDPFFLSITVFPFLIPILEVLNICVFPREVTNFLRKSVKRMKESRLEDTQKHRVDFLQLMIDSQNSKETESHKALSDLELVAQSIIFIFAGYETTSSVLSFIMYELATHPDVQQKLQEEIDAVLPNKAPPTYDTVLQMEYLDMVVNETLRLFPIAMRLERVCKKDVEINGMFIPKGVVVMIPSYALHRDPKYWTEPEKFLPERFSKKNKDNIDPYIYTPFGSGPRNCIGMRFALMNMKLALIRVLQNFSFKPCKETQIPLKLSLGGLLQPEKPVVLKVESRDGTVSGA
Cytochrome P450 2D6, sequence (P10635 whole entry): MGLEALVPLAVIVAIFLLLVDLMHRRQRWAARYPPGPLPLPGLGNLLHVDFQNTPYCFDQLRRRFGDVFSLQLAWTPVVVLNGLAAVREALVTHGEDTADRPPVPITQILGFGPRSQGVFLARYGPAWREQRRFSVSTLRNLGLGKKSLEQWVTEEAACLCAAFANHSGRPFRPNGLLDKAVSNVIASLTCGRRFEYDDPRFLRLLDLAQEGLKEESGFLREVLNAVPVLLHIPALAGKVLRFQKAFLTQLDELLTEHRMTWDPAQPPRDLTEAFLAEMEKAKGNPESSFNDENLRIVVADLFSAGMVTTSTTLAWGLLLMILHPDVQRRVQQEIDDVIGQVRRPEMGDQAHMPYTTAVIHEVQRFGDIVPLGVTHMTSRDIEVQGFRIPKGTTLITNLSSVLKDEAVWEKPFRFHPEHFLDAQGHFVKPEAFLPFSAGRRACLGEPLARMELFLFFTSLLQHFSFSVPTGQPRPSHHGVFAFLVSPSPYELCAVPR

Take `CC(C)(C)c1ccc(C(=O)NCCN2CCOCC2)cc1`: the EC50 was 18.3 µM (active) with H4, 11.8 µM (active) in experiment [1] and 12.5 µM (active) in experiment [2].

`Oc1ccc(C23CCCC2C2(CCCC2)c2ccc(O)cc2O3)c(O)c1` (configuration not stated): the CC50 in experiment [3] was 10.6 µM (active).

For the molecule `Cc1cccn2c(=O)c(/C=N/c3ccccc3)c(NCc3ccco3)nc12`, the EC50 (in the experiment on H4; in experiment [1]; in experiment [2]) was > 120 µM (not active) in each case.

For the molecule `O=Nc1c(O)n(Cc2ccc(Cl)cc2)c2ccccc12`, the AC50 on Cytochrome P450 2D6 is 25.1 µM (inconclusive). In addition, the CC50 in [3] was 38.5 µM (active).

For `O=C1c2ccccc2NC(c2ccccc2Cl)N1N=C1CCCCCC1` (configuration not stated), the EC50 is 0.493 µM (active) in the experiment with H4, 11.9 µM (active) in [1] and 18.9 µM (active) in [2].

As for `COc1ccc(S(=O)(=O)N2CCOC2CNC(=O)C(=O)NCCc2ccccc2)cc1C` (configuration not stated), the IC50 in experiment [4] was > 47.1 µM (inactive). The EC50 in [5] was > 53 µM (inactive).

Regarding `COc1ccc(-n2c(Cc3cccc([N+](=O)[O-])c3)nc3ccccc3c2=O)cc1`, the CC50 in [3] was > 50 µM (active).

With `CC(Sc1nnc(NCc2ccccc2)s1)C(=O)Nc1ccc2c(c1)C(=O)c1ccccc1C2=O` (configuration not stated), the EC50 was 49.2 µM (active) in the experiment on H4, 9.18 µM (active) in [1] and 14.1 µM (active) in experiment [2].

In the case of `CCOC(=O)C1CCN(c2ncnc3c2nnn3Cc2ccccc2Cl)CC1`, the IC50 in [4] was > 47.1 µM (inactive). For the same molecule, the EC50 in experiment [5] is > 53 µM (inactive).

On to `CCOC(=O)N1CCN(Cc2nc3c(c(=O)n(C)c(=O)n3C)n2CCC(C)C)CC1`, for which the IC50 in [4] is > 47.1 µM (inactive). The EC50 in experiment [5] was > 53 µM (inactive).

Regarding `Cc1cc2nnc(SCC(=O)NCc3ccco3)n2c2ccccc12`, the values for the EC50 (in the experiment on H4; in experiment [1]; in [2]) were > 120 µM (not active), 5.13 µM (active) and > 120 µM (not active), respectively. Moreover, in experiment [6], the AC50 is 2.9 µM (active).

Turning to `Cc1cc(C(=O)N2CCN(c3cccc(Cl)c3)CC2)c(C)o1`, the figures for the EC50 (with H4; in [1]; in experiment [2]) were > 120 µM (not active), 20.8 µM (active) and > 120 µM (not active), respectively.

Take `CCCCCCC[n+]1ccc(-c2cc[n+](CCCCCCC)cc2)cc1`: the values for the AC50 at Cytochrome P450 1A2, on Cytochrome P450 2C19 and at Cytochrome P450 2C9 were 31.6 µM (inconclusive), 10 µM (inconclusive) and 39.8 µM (inconclusive), respectively.

As for `CN1C(=O)C(O)(C2COC(C)(C)CC2=O)c2cc(Br)ccc21` (configuration not stated), the IC50 in experiment [4] is > 47.1 µM (inactive). For the same molecule, in experiment [5], the EC50 was > 53 µM (inactive).

With `C/C(=N/NS(=O)(=O)c1ccc(Br)cc1)c1ccc(NC(=O)c2ccc(C)o2)cc1`, the CC50 in experiment [3] was 38 µM (active).

Regarding `CCOC(=O)c1cc(C#N)c(Oc2ccccc2OC)nc1-c1ccccc1`, the IC50 in [4] is > 47.1 µM (inactive). Also, the AC50 at Cytochrome P450 3A4 was 11.2 µM (inconclusive). Besides, the EC50 in experiment [5] is > 53 µM (inactive).

In the case of `O=C(C1CCCN1S(=O)(=O)c1cccc2nsnc12)N1CCN(c2ccccc2)CC1` (configuration not stated), the EC50 (in the experiment with H4; in experiment [1]; in [2]) was > 120 µM (not active) each time.

With `CCOC(=O)c1sc2nc(C)n(CC(=O)NCC3CCCO3)c(=O)c2c1C` (configuration not stated), the IC50 in experiment [4] was > 47.1 µM (inactive). The EC50 in experiment [5] was > 53 µM (inactive).

For the molecule `CCC(CC)C(=O)c1c[nH]c(C(=O)NCCc2ccccn2)c1`, the AC50 at Cytochrome P450 1A2 is 14.1 µM (inconclusive); on Cytochrome P450 3A4, 20 µM (inconclusive); at Cytochrome P450 2C19, 20 µM (inconclusive); at Cytochrome P450 2C9, 39.8 µM (inconclusive).

On to `COc1ccc(C(CC(=O)Nc2ccc(F)cc2)c2ccccc2)cc1` (configuration not stated), for which the IC50 in experiment [4] is 24.3 µM (active). In addition, in experiment [5], the EC50 was > 53 µM (inactive).

Consider `O=c1c2ccccc2nnn1-c1ccc(Br)cc1`, for which the EC50 was 19 µM (active) with H4, 0.1 µM (active) in experiment [1] and 0.157 µM (active) in experiment [2].

For the molecule `C[C@@]12C(=O)N(c3cccc(F)c3)C(=O)N1[C@H](c1ccc(Cl)cc1)[C@@H]1C(=O)N(C3CCCCC3)C(=O)[C@@H]12`, the CC50 in experiment [3] is 38.5 µM (active).

As for `Cc1[nH]c2ccccc2c1/C=N/NC(=O)c1cccc(S(=O)(=O)Nc2cccc(C(F)(F)F)c2)c1`, in experiment [3], the CC50 is 12.2 µM (active).

In the case of `CCOc1cc(/C=C2\SC(=S)N(Nc3ccccc3)C2=O)ccc1O`, the EC50 with H4 is 22.6 µM (active); in [1], 9.91 µM (active); in experiment [2] it was 8.87 µM (active).

With `Cc1nc2ccc(NC(=O)c3cccc(S(=O)(=O)N4CCOCC4)c3)cc2s1`, the IC50 in [4] is > 47.1 µM (inactive). Also, the EC50 in [5] was > 53 µM (inactive).

Regarding `COc1cc(C=O)ccc1OCCOCCOc1ccc(Cl)cc1Cl`, in experiment [4], the IC50 was > 47.1 µM (inactive). Further, in [5], the EC50 was > 53 µM (inactive).

For `O=S(=O)(Cc1ccccc1)N1CCC(c2nc(O)c3nnn(Cc4cccc(Cl)c4)c3n2)CC1`, the CC50 in experiment [3] was 48.9 µM (active).

In the case of `COc1ccc(OC)c2c1s/c(=N\C(=O)C1COc3ccccc3O1)n2C` (configuration not stated), the IC50 in experiment [4] was > 47.1 µM (inactive). For the same molecule, the EC50 in experiment [5] is > 53 µM (inactive).

Regarding `COc1ccc(C2=NN(C(C#N)c3ccc(OC)cc3)C(c3ccccc3)C2)cc1` (configuration not stated), the EC50 in the experiment with H4 was > 120 µM (not active); in experiment [1], 8.15 µM (active); in experiment [2], 5.24 µM (active).

Regarding `c1ccc(CN2CCC(Nc3nc(-c4cccnc4)nc4ccccc34)CC2)cc1`, the EC50 in experiment [7] was 8.99 µM (active); with H4, 104 µM (active); in experiment [8], 1.34 µM (active); in experiment [1], > 120 µM (not active); in experiment [2], 13 µM (active).

A word on the CC50: it is the concentration at which the toxic effect on the cells reaches its halfway point. Broadly, the AC50 is the midpoint of the concentration-response curve, whichever way the signal moves.
